Laboratory results reported in ChEMBL document CHEMBL1201862, “PubChem BioAssay data set” (2004).
One block for each molecule: values may come before it. The source made the active and inactive calls. For most assays here, no stated cut-off is given here; in the data, actives have a measured EC50 and inactives only a lower limit.

Assays:
H9c2 = assay: cells; assay type: functional, cell-based; conditions: Rattus norvegicus, H9c2, Myocardium;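 further: confirmatory concentration-response retest of ultra-high-throughput screening hits for modulation of myocardial damage; cell death induced by hydrogen peroxide oxidative stress; compound pretreatment for 60 min then peroxide exposure for 2 h; potency is for protecting the cells against peroxide damage rather than for killing them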
[1] = target: T1, Zinc finger protein mex-5 (Caenorhabditis elegans, UniProt Q9XUB2); assay: MEX-5/TCR-2 RNA interaction inhibitors, dose response, biochemical, C. elegans, fluorescence polarization (AID 1960)
T1 sequence (Q9XUB2 whole entry): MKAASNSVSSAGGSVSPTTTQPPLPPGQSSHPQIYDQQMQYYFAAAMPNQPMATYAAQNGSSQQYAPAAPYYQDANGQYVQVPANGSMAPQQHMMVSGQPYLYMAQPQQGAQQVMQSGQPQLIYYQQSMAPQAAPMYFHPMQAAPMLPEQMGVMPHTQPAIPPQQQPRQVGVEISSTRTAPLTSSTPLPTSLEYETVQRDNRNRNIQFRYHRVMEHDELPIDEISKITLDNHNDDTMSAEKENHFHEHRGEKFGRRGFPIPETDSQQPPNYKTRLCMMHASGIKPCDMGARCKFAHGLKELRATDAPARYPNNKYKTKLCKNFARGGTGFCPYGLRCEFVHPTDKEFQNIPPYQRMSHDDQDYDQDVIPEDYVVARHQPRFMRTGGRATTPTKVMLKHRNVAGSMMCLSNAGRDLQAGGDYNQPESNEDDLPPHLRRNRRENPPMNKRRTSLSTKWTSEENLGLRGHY

[2] = target: T2, RNA-binding protein pos-1 (Caenorhabditis elegans, UniProt G5EF15); assay: inhibitors of POS-1/mex-3 RNA binding, dose response, biochemical, fluorescence polarization (AID 1964);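 further: purified POS-1 fused to maltose binding protein made in E. coli; potency of compounds blocking POS-1 binding to fluorescent RNA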
T2 sequence (G5EF15 whole entry): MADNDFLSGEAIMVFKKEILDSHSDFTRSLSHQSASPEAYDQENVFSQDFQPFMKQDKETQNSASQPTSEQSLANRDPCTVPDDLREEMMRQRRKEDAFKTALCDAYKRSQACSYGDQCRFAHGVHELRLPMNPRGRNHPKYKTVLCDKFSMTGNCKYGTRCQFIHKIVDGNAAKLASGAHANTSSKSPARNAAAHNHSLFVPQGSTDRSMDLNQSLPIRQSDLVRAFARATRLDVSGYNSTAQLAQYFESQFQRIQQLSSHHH

[3] = target: T3, Heat shock factor protein 1 (Mus musculus, UniProt P38532); assay: inhibition of MG132-induced HSE-luciferase signal, confirmation, cell-based, NIH3T3, luminescence, dose retest (AID 2382); assay type: functional;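 further: NIH3T3 fibroblasts with HSF1-driven luciferase reporter stressed by proteasome inhibitor MG132; luminescence from HSF1-driven luciferase expression after 8 hours of MG132 stress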
T3 sequence (P38532 whole entry): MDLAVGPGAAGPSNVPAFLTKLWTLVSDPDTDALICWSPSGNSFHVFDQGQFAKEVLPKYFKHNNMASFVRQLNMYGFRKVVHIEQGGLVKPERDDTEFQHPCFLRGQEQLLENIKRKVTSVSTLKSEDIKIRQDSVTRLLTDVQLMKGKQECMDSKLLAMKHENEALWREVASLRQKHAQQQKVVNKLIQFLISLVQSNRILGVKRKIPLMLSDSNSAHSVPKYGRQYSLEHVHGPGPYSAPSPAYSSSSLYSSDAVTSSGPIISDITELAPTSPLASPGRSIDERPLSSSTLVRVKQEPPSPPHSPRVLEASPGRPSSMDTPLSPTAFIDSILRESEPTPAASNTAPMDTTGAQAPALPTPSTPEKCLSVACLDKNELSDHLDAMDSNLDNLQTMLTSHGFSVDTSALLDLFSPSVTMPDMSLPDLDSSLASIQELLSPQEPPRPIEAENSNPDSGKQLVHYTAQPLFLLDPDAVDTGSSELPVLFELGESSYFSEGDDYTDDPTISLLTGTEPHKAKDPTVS

[4] = target: T4, Corticotropin-releasing factor receptor 2/Corticotropin-releasing factor-binding protein (Homo sapiens, UniProt P24387+Q13324); assay: Dose Response confirmation of uHTS hits for small molecule antagonists of the CRF-binding protein and CRF-R2 receptor complex.; assay type: functional; conditions: read-out: IC50_Mean
T4 sequence (Q13324 whole entry): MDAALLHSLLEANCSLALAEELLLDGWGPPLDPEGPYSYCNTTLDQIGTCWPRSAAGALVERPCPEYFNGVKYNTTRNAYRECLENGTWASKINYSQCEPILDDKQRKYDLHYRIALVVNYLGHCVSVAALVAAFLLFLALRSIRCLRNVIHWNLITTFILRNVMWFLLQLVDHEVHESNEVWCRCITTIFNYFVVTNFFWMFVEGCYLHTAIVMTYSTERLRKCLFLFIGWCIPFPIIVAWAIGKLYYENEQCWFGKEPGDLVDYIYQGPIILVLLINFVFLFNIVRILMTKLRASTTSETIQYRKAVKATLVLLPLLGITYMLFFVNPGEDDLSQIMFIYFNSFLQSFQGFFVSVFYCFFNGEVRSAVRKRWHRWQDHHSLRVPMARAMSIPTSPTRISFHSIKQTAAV
T4 sequence (P24387 whole entry): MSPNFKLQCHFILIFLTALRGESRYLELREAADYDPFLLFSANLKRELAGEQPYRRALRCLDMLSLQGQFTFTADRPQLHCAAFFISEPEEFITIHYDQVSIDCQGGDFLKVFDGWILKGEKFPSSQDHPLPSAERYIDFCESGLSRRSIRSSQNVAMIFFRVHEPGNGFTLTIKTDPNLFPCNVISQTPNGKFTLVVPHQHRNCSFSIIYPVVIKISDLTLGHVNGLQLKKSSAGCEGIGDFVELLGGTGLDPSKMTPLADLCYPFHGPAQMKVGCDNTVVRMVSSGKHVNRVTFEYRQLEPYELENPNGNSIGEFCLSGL

[5] = target: T4, Corticotropin-releasing factor receptor 2/Corticotropin-releasing factor-binding protein; assay: activators of CRF receptor 2 with binding protein – uHTS hits, confirmation (AID 602473); assay type: functional; conditions: read-out: EC50_Mean
[6] = target: T5, Calpain-2 catalytic subunit (Sus scrofa, UniProt P43367); assay: pig calpain II inhibitor potency, dose response, biochemical, fluorogenic peptide substrate (AID 1420); assay type: functional
T5 sequence (P43367 whole entry): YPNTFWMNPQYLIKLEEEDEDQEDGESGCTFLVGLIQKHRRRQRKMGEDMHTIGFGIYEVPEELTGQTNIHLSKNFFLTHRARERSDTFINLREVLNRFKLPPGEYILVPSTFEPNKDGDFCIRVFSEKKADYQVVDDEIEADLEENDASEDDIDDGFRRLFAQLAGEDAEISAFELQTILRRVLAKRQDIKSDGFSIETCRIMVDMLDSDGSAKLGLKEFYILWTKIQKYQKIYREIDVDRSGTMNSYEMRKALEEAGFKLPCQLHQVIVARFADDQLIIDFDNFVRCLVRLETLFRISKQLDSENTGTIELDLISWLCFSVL

[7] = NIH-3T3 fibroblast cytotoxicity, dose response, cytotoxicity control, cell-based, fluorescence, Alamar Blue, secondary assay (AID 2327); assay type: functional;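 further: NIH-3T3 mouse fibroblasts cultured with fluconazole at 8 µg/mL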
[8] = C. albicans growth with fluconazole, confirmation, fluorescence, retest (AID 2467); assay type: functional, cell-based

Structure (SMILES): COc1ccc(CCNC(=O)C(=O)NCC2CCCN2S(=O)(=O)c2cc(C)ccc2C)cc1 (centres undefined)
IC50 (H9c2): 34.1 µM (inactive)

EC50 [1]: 16.2 µM (active)
EC50 [2]: 20.5 µM (active)
Structure (SMILES): CCCCC1=CC2=CC(=O)C(C)(OC(=O)c3ccco3)C(=O)C2=CO1 (centres undefined)

EC50 [3]: 17 µM (active)
IC50 [4]: > 47.1 µM (inactive)
EC50 [5]: > 53 µM (inactive)
Structure (SMILES): CC(C)CN(CC(C)C)C(S)=NC1CCCCC1

EC50 [3]: > 195 µM (not active)
Structure (SMILES): Cc1ccc(-c2nn(C)c(=O)c3ccccc23)cc1S(=O)(=O)NCCN(C)C

EC50 [1]: 54.8 µM (active)
EC50 [2]: 48.3 µM (active)
Structure (SMILES): C=CCSc1nnc(N2C(=O)C(O)=C(C(=O)c3ccco3)C2c2ccccc2F)s1 (centres undefined)

EC50 [3]: > 195 µM (not active)
Structure (SMILES): O=C(NC(=S)Nc1ccc2oc(=O)ccc2c1)c1cc2ccccc2o1

IC50 [6]: 6.82 µM (not active)
Structure (SMILES): CN(C)S(=O)(=O)c1ccc2c(c1)nc(CCC(=O)NCc1ccc(Cl)cc1)n2C

EC50 [1]: 6.67 µM (active)
EC50 [2]: 7.71 µM (active)
Structure (SMILES): O=C1/C(=C/c2ccc(Br)cc2)Oc2cc(O)ccc21

Structure (SMILES): O=P(Nc1ccccc1)(Oc1ccccc1)Oc1ccccc1
IC50 (H9c2): > 79 µM (inactive)

Structure (SMILES): CCCCOP(=O)(c1ccc(N(C)C)cc1)C(O)c1ccccc1F (centres undefined)
EC50 [7]: > 150 µM (inactive)
EC50 [8]: 2.56 µM (active)

EC50 [1]: 254 µM (inconclusive)
EC50 [2]: > 300 µM (not active)
Structure (SMILES): CCC(C)n1c(=N)c(C#N)cc2c(=O)n3cc(C)ccc3nc21 (centres undefined)

IC50 [6]: > 50 µM (not active)
Structure (SMILES): Cc1ccccc1Nc1scc(-c2ccc(Cl)cc2)[n+]1-c1ccccc1C

EC50 [1]: 9.29 µM (active)
EC50 [2]: 11.8 µM (active)
Structure (SMILES): CCc1cc(C(=O)Nc2ccc(OC)nc2)sc1C

IC50 [6]: 4.17 µM (not active)
Structure (SMILES): CC1(C)C(=O)OC(c2c(F)c(F)c(F)c(F)c2F)C2(CCCCC2)C1=O (centres undefined)

IC50 [6]: < 0.4 µM (not active)
Structure (SMILES): CNC(=O)NC(=O)C(C)Oc1ccccc1F (centres undefined)

Structure (SMILES): O=C(CSc1nc(-c2ccco2)cc(C(F)(F)F)n1)NCCc1ccccc1
EC50 [7]: 136 µM (inconclusive)
EC50 [8]: > 38 µM (not active)

Structure (SMILES): O=C(Nc1ccc2c(c1)OCO2)c1cnn2c(C(F)(F)F)cc(-c3ccco3)nc12
IC50 (H9c2): > 79 µM (inactive)

EC50 [1]: > 300 µM (not active)
EC50 [2]: > 300 µM (not active)
Structure (SMILES): Cc1cc2c3c(c1)C(C)CC(C)(C)N3C(=O)C2=O (centres undefined)

Structure (SMILES): CCCc1cc(=O)oc2c(CNc3ccc(OCC)cc3)c(O)ccc12
IC50 (H9c2): > 79 µM (inactive)

EC50 [1]: 21.1 µM (active)
EC50 [2]: 31.8 µM (active)
Structure (SMILES): Cc1ccc(S(=O)(=O)NNC(=S)NC(=O)c2ccc([N+](=O)[O-])cc2)cc1

Structure (SMILES): Oc1nc2cc3c(cc2cc1CN(Cc1nnnn1CC1CCCO1)C1CCCCC1)OCO3 (centres undefined)
IC50 (H9c2): 27.5 µM (active)

EC50 [1]: > 300 µM (not active)
EC50 [2]: > 300 µM (not active)
Structure (SMILES): CCN(CC)c1nc(-c2nnn[nH]2)nc(N(CC)CC)n1
